In PubChem BioAssay (NCI):
Where “and” joins values, the source holds several entries; their conditions need not be identical. Equal entries are not always repeated.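 Values below derive from 48-hour exposures of cells grown in 96-well plates, with endpoints linearly interpolated between the two concentrations bracketing the appropriate inhibition level. GI50 is the concentration that inhibits growth by half. TGI denotes the concentration required for complete inhibition of growth.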

Key:
Assay in all cases: NCI anticancer screen, dose series, 48 h
[1] = tested on: A549 NSCLC
[2] = tested on: BT-549 breast
[3] = tested on: HCC-2998 colon
[4] = tested on: HCT-116 colon
[5] = tested on: HOP-62 NSCLC
[6] = tested on: KM12 colon
[7] = tested on: MALME-3M melanoma
[8] = tested on: OVCAR-3 ovarian
[9] = tested on: SF-295 CNS
[10] = tested on: UO-31 renal

| Compound | TGI [1] | TGI [2] | TGI [3] | GI50 [4] | TGI [4] | TGI [5] | TGI [6] | TGI [7] | TGI [8] | TGI [9] | TGI [10] | GI50 [1] | GI50 [2] | GI50 [3] | GI50 [5] [µM] | GI50 [6] | GI50 [7] | GI50 [8] | GI50 [9] | GI50 [10] |
| --- | --- | --- | --- | --- | --- | --- | --- | --- | --- | --- | --- | --- | --- | --- | --- | --- | --- | --- | --- | --- |
| Cc1nc2c(-c3cnc(N)nc3)nc(N3CCOCC3)nc2n1C(C)C | 2.66 µM | 2.22 µM | 4.27 µM and 24.8 µM | 0.254 µM and 0.289 µM | > 100 µM | 3.5 µM and 0.772 µM | > 10 µM and 21.8 µM | 0.46 µM and 0.225 µM | 1.64 µM and 1.92 µM | 0.888 µM and 0.406 µM | 0.452 µM and 0.401 µM | – | – | – | – | – | – | – | – | – |
| CCN1CCN(C(c2ccc(C(F)(F)F)cc2)c2ccc3cccnc3c2O)CC1 (configuration not stated) | 12.1 µM | 11.6 µM | 12.2 µM | 3.06 µM | 13.5 µM | 13.7 µM | 16.8 µM | 15.4 µM | 15.4 µM | 4.39 µM | 9.04 µM | 1.31 µM | 1.4 µM | 0.88 µM | 1.32 | 0.89 µM | 3.72 µM | 3.47 µM | 0.313 µM | 1.59 µM |
| COc1ccc(CN2C(=O)/C(=C\C(=O)c3ccc(OCCN4CCCCC4)cc3)c3ccccc32)cc1 | 31.2 µM | 16.5 µM | 5.05 µM | 1.54 µM | 2.88 µM | 35.4 µM | 28.6 µM | 3.41 µM | 3.94 µM | 31.8 µM | 2.92 µM | 15.9 µM | 5.25 µM | 2.4 µM | 20.2 | 12 µM | 1.82 µM | 1.93 µM | 13.8 µM | 1.57 µM |
| Cc1ccc(C)c(C2=C(c3cn(C)c4ccccc34)C(=O)NC2=O)c1 | > 25 µM | > 25 µM | > 25 µM | 7.58 µM | > 25 µM | > 25 µM | > 25 µM | > 25 µM | > 25 µM | > 19.4 µM | > 25 µM | 18.9 µM | > 25 µM | > 25 µM | 12.1 | 12.6 µM | > 25 µM | 15.1 µM | 4.4 µM | 13.4 µM |
| Cc1cc(I)cc(CN(C)CCCN2CCCCCCC2)c1O | 45.5 µM | 26.7 µM | 36.8 µM | 11.8 µM | 28.3 µM | 32.2 µM | 31 µM | 36.1 µM | 29.1 µM | 23 µM | 26.2 µM | 20.1 µM | 13.1 µM | 18.1 µM | 16.4 | 14.2 µM | 19.5 µM | 14.8 µM | 7.38 µM | 11.8 µM |
| OC[C@H]1C[C@](O)(c2ccc(Cl)cc2)[C@@H](c2ccc(Cl)cc2)O1 | 78.7 µM | 34.6 µM | 52.9 µM | 17.3 µM | 35.6 µM | 51.8 µM | 51 µM | 45.4 µM | 58.9 µM | 84.8 µM | 50.3 µM | 29.6 µM | 16.8 µM | 23.8 µM | 20.9 | 20.6 µM | 21.5 µM | 26.2 µM | 30.1 µM | 19.4 µM |
| COc1cnc2c(c1)C(=O)c1c-2n(CCCNC(C)C)c(=O)c2cc(Cl)ccc12 | 2.07 µM | 2.59 µM | 2.85 µM | 0.138 µM | 1.01 µM | 1.53 µM | 2.45 µM | 3.07 µM | 3.02 µM | 1.43 µM | 2.04 µM | 0.0902 µM | 0.698 µM | 1.37 µM | 0.0709 | 1.09 µM | 1.5 µM | 1.39 µM | 0.0523 µM | 0.498 µM |
| CCC(C)n1ncn(-c2ccc(N3CCN(c4ccc(OCC5COC(Cn6cncn6)(c6ccc(Cl)cc6Cl)O5)cc4)CC3)cc2)c1=O (configuration not stated) | > 100 µM | > 100 µM | > 100 µM | 21.6 µM | > 100 µM | 37 µM | > 100 µM | > 100 µM | > 100 µM | > 100 µM | > 100 µM | 35.8 µM | 3.6 µM | 84.1 µM | 8.97 | 5.69 µM | 46.2 µM | 40.9 µM | 1.4 µM | 30 µM |
| C=C1C(=O)OC2CCN3CC=C(COC(=O)C(C)(O)C4(CO4)C1C)C23 (configuration not stated) | > 100 µM | > 100 µM | > 100 µM | – | > 100 µM | – | > 100 µM | > 100 µM | – | > 100 µM | > 100 µM | – | – | – | – | – | – | – | – | – |
| COc1cc(N(CCC#N)CCC#N)ccc1/C(N=Nc1ccc([N+](=O)[O-])cc1)=N/NC(=O)c1cc(Br)ccc1O | 140 µg/mL | > 150 µg/mL | 78.7 µg/mL | 29.9 µg/mL | 91.9 µg/mL | – | 71 µg/mL | 96.1 µg/mL | 76.2 µg/mL | 69.6 µg/mL | > 150 µg/mL | 44.4 µg/mL | 53 µg/mL | 40.9 µg/mL | – | 28.5 µg/mL | 44.2 µg/mL | 30.9 µg/mL | 29.9 µg/mL | 48.4 µg/mL |
